IC50 and Solubility data for 5 compounds are collected here from paper PMC12368479, “Inhibition of the Clathrin Terminal Domain—Amphiphysin Protein–Protein Interaction. Probing the Pitstop 2 Aromatic Moiety” (Chemmedchem, 2025).

Each structure is given as a SMILES string. Like-named read-outs stand apart in the source and are kept apart here.

The term IC50 denotes the concentration needed to halve the response being measured.

The target of data set [1] is T1, clathrin heavy chain NTD (amino acids 1–364) – amphiphysin 1 B/C domain protein–protein interaction (NTD‐PPI) (Homo sapiens, UniProt Q00610).
T1 construct: GST‐tagged clathrin heavy chain NTD (amino acids 1–364); made in house
T1 sequence (Q00610 1-364): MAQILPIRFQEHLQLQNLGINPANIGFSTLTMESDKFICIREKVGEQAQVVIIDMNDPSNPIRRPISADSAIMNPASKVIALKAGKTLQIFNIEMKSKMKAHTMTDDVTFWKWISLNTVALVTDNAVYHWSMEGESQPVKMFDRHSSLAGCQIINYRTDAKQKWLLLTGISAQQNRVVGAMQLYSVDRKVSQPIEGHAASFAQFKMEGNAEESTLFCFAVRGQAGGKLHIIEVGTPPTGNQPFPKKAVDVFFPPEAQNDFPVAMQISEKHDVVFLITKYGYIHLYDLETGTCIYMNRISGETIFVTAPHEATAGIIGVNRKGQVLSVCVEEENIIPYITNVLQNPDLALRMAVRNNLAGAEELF
The arrangement: method as in PMID 21816279, PMID 27853797. The following applies: Figure 1, lead Pitstop 2 and earlier analogs; read-out: IC50 (clathrin NTD‐PPI inhibition); cited from earlier work.

The target of data set [2] is T1, clathrin heavy chain NTD (amino acids 1–364) – amphiphysin 1 B/C domain protein–protein interaction (NTD‐PPI). The data set is described as follows: ELISA-based clathrin inhibitor binding assay (NTD-PPI). The method, boiled down:
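His6-tagged amphiphysin 1 B/C domain (aa 250–578) was coated on plates in 20 mM HEPES pH 7.4, 50 mM NaCl, 1 mM DTT; compounds were incubated 1 h at room temperature with GST-clathrin NTD (aa 1–364). Bound NTD was detected by HRP anti-GST and TMB absorbance, expressed as percent binding of DMSO control.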
A general note: An ELISA detects its analyte on a solid surface through an enzyme-linked reagent.

Data set [3] addresses T2, full length human Dynamin I (Homo sapiens, UniProt Q05193).
T2 construct: full length human Dynamin I expressed in Sf21 insect cells; made in house; host or cells: Sf21 insect cells
T2 sequence (Q05193 1-864): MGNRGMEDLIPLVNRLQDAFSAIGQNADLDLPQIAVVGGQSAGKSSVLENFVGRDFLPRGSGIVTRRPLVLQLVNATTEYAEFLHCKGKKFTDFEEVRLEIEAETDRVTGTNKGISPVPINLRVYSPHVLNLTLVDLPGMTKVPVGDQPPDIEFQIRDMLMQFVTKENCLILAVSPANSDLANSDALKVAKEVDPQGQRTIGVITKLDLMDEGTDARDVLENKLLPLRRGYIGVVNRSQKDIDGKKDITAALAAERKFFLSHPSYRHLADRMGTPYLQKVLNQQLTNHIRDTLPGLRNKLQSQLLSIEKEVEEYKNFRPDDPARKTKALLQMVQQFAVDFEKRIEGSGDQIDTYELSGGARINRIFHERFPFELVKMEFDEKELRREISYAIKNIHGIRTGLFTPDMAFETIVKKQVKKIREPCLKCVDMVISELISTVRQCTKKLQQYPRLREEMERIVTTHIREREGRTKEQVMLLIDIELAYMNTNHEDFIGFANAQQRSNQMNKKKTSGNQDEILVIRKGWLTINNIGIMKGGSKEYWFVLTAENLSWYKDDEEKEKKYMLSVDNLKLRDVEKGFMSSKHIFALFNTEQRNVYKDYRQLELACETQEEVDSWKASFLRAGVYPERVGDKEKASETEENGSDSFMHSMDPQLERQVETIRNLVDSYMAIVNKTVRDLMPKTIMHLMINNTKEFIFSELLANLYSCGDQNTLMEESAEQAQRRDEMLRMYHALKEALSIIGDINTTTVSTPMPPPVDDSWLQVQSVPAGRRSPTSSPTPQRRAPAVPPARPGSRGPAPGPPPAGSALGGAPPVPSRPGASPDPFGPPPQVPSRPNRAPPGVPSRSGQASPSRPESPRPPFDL
The data set is described as follows: Dynamin GTPase activity, Malachite Green phosphate detection assay. Type of data set: biochemical. The method, then:
Dynamin GTPase activity was determined in vitro using the Malachite Green phosphate detection absorbance‐based assay within a 96‐well plate format as described previously. The enzyme source was full length human Dynamin I expressed in Sf21 insect cells and affinity‐purified on GST‐Amph2‐SH3 (rat Amphiphysin 2 (494–588)).^[ [56] ^]

Data set [4] has as its system transferrin uptake (CME) in U2OS osteosarcoma cells. Briefly: Clathrin-mediated endocytosis assay: transferrin (Tfn) uptake in U2OS cells. The format is cell-based. The following applies: Homo sapiens, U2OS.
A short description of data set [5]: Qualitative solubility in solvents (compound data sheets, Supporting Information). Type of data set: physicochemical. The following applies: solvents in which the compound dissolves.
[6] abbreviates: Table 5, ELISA, read-out: NTD‐PPI IC50.
Where [7] appears, read: Table 5, dynamin GTPase, n = 1 or n = 2 as footnoted, NA = not active at 100 μM, read-out: Dynamin 1 IC50.
The mark [8] stands for this setting: Table 5, inhibition of transferrin‐red uptake in U2OS cells, '–'/NA = not active at 100 μM.

On to `O=C1N=C(NS(=O)(=O)c2cccc3ccccc23)S/C1=C\c1ccc(Br)cc1` [Pitstop 2, (Z)‐N‐(5‐(4‐bromenzylidene)‐4‐oxo‐4,5‐dihydrothiazol‐2‐yl)naphthalene‐1‐sulfonamide], for which the IC50 in data set [1] was 1.9 µM.

As for `O=C1N=C(NS(=O)(=O)c2cccc3ccccc23)S/C1=C\c1ccc(O)cc1` [compound 6, (Z)‐N‐(5‐(4‐hydroxybenzylidene)‐4‐oxo‐4,5‐dihydrothiazol‐2‐yl)naphthalene‐1‐sulfonamide], the IC50 in data set [2] (Table 1, library 1, ELISA, average of duplicate measurements (n=2), read-out: NTD‐PPI IC50) was 5.6 µM; in data set [2] (setting [6]), 5.6 µM; in data set [2] (read-out: NTD‐PPI IC50 (ELISA)), 2.7 µM; in data set [3] (Table 1, library 1, n = 1 unless noted (19: n = 2), '–' = not active at 150 μM, read-out: Dyn 1 IC50), over 150 µM; in data set [3] (setting [7]) it was over 100 µM; in data set [4] (setting [8]), 46.7 ± 13.1 µM. Besides, the Solubility entry in data set [5] was “DMSO, slightly soluble in ethanol, acetone, methanol and ethyl acetate”.

Regarding `O=C1N=C(NS(=O)(=O)c2cccc(Cl)c2)S/C1=C\c1ccc(Br)cc1` [compound 2], the IC50 in data set [1] was 5.1 µM.

In the case of `O=C1N=C(NS(=O)(=O)c2cccc3ccccc23)S/C1=C\c1cccc(O)c1O` [compound 3], in data set [1], the IC50 is 3.5 µM.

For `O=C1COc2ccc(/C=C3\SC(NS(=O)(=O)c4cccc5ccccc45)=NC3=O)cc2N1` [compound 52, (Z)‐N‐(4‐oxo‐5‐((3‐oxo‐3,4‐dihydro‐2H‐benzo[b][1,4]oxazin‐6‐yl)methylene)‐4,5‐dihydrothiazol‐2‐yl)naphthalene‐1‐sulfonamide], the IC50 is 3.33 µM in data set [2] (Table 4, library 4, ELISA, average of duplicate measurements (n = 2), read-out: NTD‐PPI IC50); 3.33 µM in data set [2] (setting [6]); under 5 µM in data set [2] (read-out: NTD‐PPI IC50 (ELISA)); about 54.1 µM in data set [3] (Table 4, library 4, n = 1 or n = 2 as footnoted, '–' = not active at 100 μM, read-out: Dynamin 1 IC50); about 54.1 µM in data set [3] (setting [7]); over 100 µM in data set [4] (setting [8]). In data set [4] (U2OS cells), this compound had an IC50 of over 50 µM. For the same compound, the Solubility result in data set [5] is “DM SO, slig htly soluble in acetone, ethanol an d m ethanol”.
